From ChEMBL document CHEMBL1132455, “Retention of immunosuppressant activity in an ascomycin analogue lacking a hydrogen-bonding interaction with FKBP12” (J Med Chem, 1999)

What was measured:
[1] = target: Peptidyl-prolyl cis-trans isomerase FKBP1A (Homo sapiens, UniProt P62942); test: The compound was tested for binding affinity against human FK506 binding protein 12
Homo sapiens [2] = species on record: Homo sapiens; test: Immunosuppressive activity examined in an in vitro model of allogenic T-lymphocyte activation(by MLR assay); type: functional
Rattus norvegicus = test: The compound was tested in vivo for lympho-proliferation,against popliteal lymph node(inbred male rats) after i.p. administration; type: functional; settings: ip
Homo sapiens [3] = species on record: Homo sapiens; test: Immunosuppressive activity examined in an in vitro model of allogenic T-lymphocyte activation (by MLR assay); type: functional

Sequence of Peptidyl-prolyl cis-trans isomerase FKBP1A (P62942 whole entry): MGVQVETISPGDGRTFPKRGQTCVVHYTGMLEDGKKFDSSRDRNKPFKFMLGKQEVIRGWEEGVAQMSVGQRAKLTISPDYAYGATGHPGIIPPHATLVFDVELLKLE

Row | Compound | IC50 [1] [nM] | IC50 (Homo sapiens [2]) [nM] | ED50 (Rattus norvegicus) [mg/kg/day] | IC50 (Homo sapiens [3]) [nM]
1 | CC[C@@H]1/C=C(\C)C[C@H](C)C[C@H](OC)[C@H]2O[C@@](O)(C(=O)C(=O)N3CCCC[C@H]3C(=O)O[C@H](/C(C)=C/[C@@H]3CC[C@@H](O)[C@H](OC)C3)[C@H](C)/C=C/C1=O)[C@H](C)C[C@@H]2OC | 529 | 22 | – | –
2 | C=CC[C@@H]1/C=C(\C)C[C@H](C)C[C@H](OC)[C@H]2O[C@@](O)(C(=O)C(=O)N3CCCC[C@H]3C(=O)O[C@H](/C(C)=C/[C@@H]3CC[C@@H](O)[C@H](OC)C3)[C@H](C)[C@@H](O)CC1=O)[C@H](C)C[C@@H]2OC [TACROLIMUS ANHYDROUS] | – | – | 0.15 | 0.23
3 | CC[C@@H]1/C=C(\C)C[C@H](C)C[C@H](OC)[C@H]2O[C@@](O)(C(=O)C(=O)N3CCCC[C@H]3C(=O)O[C@H](/C(C)=C/[C@@H]3CC[C@@H](O)[C@H](OC)C3)[C@H](C)[C@@H](O)CC1=O)[C@H](C)C[C@@H]2OC [ASCOMYCIN] | – | – | 0.32 | 0.26
4 | CC[C@@H]1/C=C(\C)C[C@H](C)C[C@H](OC)[C@H]2O[C@@](O)(C(=O)C(=O)N3CCCC[C@H]3C(=O)O[C@H](/C(C)=C/[C@@H]3CC[C@@H](O)[C@H](OC)C3)[C@H](C)CCC1=O)[C@H](C)C[C@@H]2OC | 0.77 | – | 0.65 | 0.15
